Assay results taken from patent publication EP0281242B1, “Beta-alkylmelatonins” (ELI LILLY AND COMPANY, priority 1987, dated 1988).

Test system: rats and mice
Experiment: not given
Conditions: cited from earlier work

Compound | inhibition of the estrous phase of the estrous cycle and of ovulation
COc1ccc2[nH]cc(CCNC(C)=O)c2c1 [Melatonin, N-[2-(5-methoxy-3-indolyl)ethyl]acetamide] | inhibited both the estrous phase of the estrous cycle and ovulation

Test system: Adult female rats
Experiment: Ovulation inhibition in adult female rats (ova in the oviduct on the day of estrus)
Assay type: in vivo
Conditions: Rattus norvegicus, po; administered orally at noon on the day of proestrus; dose giving a 50% decrease in the number of ovulating non-control rats relative to control rats; read-out: Minimum effective inhibitory dose in mg per kilogram of rat weight
Protocol: The degree of ovulation inhibitory activity was determined according to the following protocol.
Adult female rats with regular estrus cycles of four days each are employed. The estrus cycle consists of 2 days of diestrus followed by a day of proestrus and then a day of estrus. […] On the afternoon of proestrus, luteinizing hormone (LH) is released into the blood by the pituitary gland. The LH travels to the ovary where it induces ovulation, resulting in the presence of eggs in the oviduct on the day of estrus.
The test compound is administered orally to the non-control rats at noon on the day of proestrus. Both control and non-control rats are sacrificed on the following day (estrus). The oviduct is removed from each rat and examined microscopically for the presence of ova.
Melatonin is included in Table I for comparative purposes.

Compound | minimal effective dose
COc1cc2c(C(C)CNC(C)=O)c[nH]c2c(Cl)c1Cl (racemic) [β-Methyl-6,7-dichloro-melatonin, β-methyl-6,7-dichloromelatonin] | 15 mg/kg
COc1cc2c([C@@H](C)CNC(C)=O)c[nH]c2cc1Cl [R-(+)-β-methyl-6-chloromelatonin] | 1 mg/kg
COc1cc2c([C@H](C)CNC(C)=O)c[nH]c2cc1Cl [S-(-)-β-methyl-6-chloromelatonin] | > 5 mg/kg
COc1cc2c(C(C)CNC(C)=O)c[nH]c2cc1Cl (racemic) [β-methyl-6-chloro-melatonin, β-Methyl-6-chloromelatonin] | 2 mg/kg
COc1ccc2[nH]cc([C@@H](C)CNC(C)=O)c2c1 [R-(+)-β-methyl melatonin, R-(+)-β-Methylmelatonin] | 1 mg/kg
CCC(CNC(C)=O)c1c[nH]c2ccc(OC)cc12 (racemic) [β-ethyl melatonin, β-Ethylmelatonin] | 1 mg/kg
COc1ccc2[nH]cc(CCNC(C)=O)c2c1 [Melatonin, N-[2-(5-methoxy-3-indolyl)ethyl]acetamide] | 32 mg/kg
COc1ccc2[nH]cc(C(C)CNC(C)=O)c2c1 (racemic) [β-methyl melatonin, β-Methylmelatonin] | 1 mg/kg

Test system: ovulation
Experiment: not given
Conditions: compared to melatonin; cited from earlier work

Compound | ovulation blocking activity
COc1cc2c(CCNC(C)=O)c[nH]c2cc1Cl [6-chloromelatonin] | increased ovulation blocking activity
COc1cc2c(CCNC(C)=O)c[nH]c2cc1F [6-fluoromelatonin] | increased ovulation blocking activity
COc1cc2c(CC(C)NC(C)=O)c[nH]c2cc1Cl (stereo not drawn) [α-Methyl-6-chloromelatonin] | no increased ovulation-blocking activity
